Experimental data as given in PMC9303458 (Chemmedchem, 2022).
Where two headings read alike, the source gives them in different places.

Tests used:
[1] = Chemical stability in aqueous solution; format: physicochemical; settings: percent of parent remaining after 60 min at 37 °C; mean ± SD, n=3
[2] = Metabolic stability in porcine liver S9 fraction; format: in vitro ADME; settings: percent of parent remaining after 30 min at 37 °C; mean ± SD, n=3
[3] = Metabolic stability in porcine blood plasma; format: in vitro ADME; settings: percent of parent remaining after 30 min at 37 °C; mean ± SD, n=3
[4] = Thermodynamic aqueous solubility; format: physicochemical; settings: PBS pH 7.4, shaken 20 h, 20 °C; mean ± SD
[5] = dogs, peroral application; cited from earlier work
[6] = rats, peroral application; cited from earlier work
Caco‐2 cell monolayer [7] = experiment: Caco‐2 cell permeability
Caco‐2 cell monolayer [8] = settings: Caco‐2, comparable conditions; cited from earlier work

| Compound | PBS‐buffer pH 7.4 Stability [1] | Porcine liver S9 fraction Stability [2] | Porcine blood plasma Stability [3] | Aqueous solubility pH 7.4 [4] | Bioavailability [5] | Bioavailability [6] | Permeability coefficient pH 7.4 (Caco‐2 cell monolayer [7]; Caco‐2, 10 μM apical, 2 h, 37 °C, mean ± SD, n=3, n.d.: no permeation detectable) | Permeability coefficient, literature value (Caco‐2 cell monolayer [8]) | Recovery of test compound at the end of the Caco‐2 experiment (Caco‐2 cell monolayer [7]; sum of apical and basolateral compartments after 2 h) |
| --- | --- | --- | --- | --- | --- | --- | --- | --- | --- |
| O=C(OC(C(F)(F)F)C(F)(F)F)N1CCN(Cc2ccc(C(F)(F)F)cc2N2CCCC2)CC1 [ABX‐1431, reference compound] | 90±5% | 81±3% | 95±2% | very low solubility | more than 60% | more than 60% | could not be detected |  |  |
| COc1ccc2c(c1)c(CC(=O)O)c(C)n2C(=O)c1ccc(Cl)cc1 [indomethacin, reference compound] |  |  |  |  |  |  |  | 2.04e-05 cm/s | quantitative |
